24 molecules from patent US8637525B2, “Compounds for the reduction of beta-amyloid production” (Bristol-Myers Squibb Company, priority 2009, dated 2014) can be followed below.

Where a name gives a salt, the structure may show the parent alone. Read-outs that look alike come from different tables or passages of the source.

This test concerns Aβ1-42 production. The test is described as follows: Cellular assay for inhibition of Aβ1-42 production (H4 APP751 SWE clone 8.20). The test is classed as cell-based. The settings on record: H4 APP751 SWE clone 8.20 cells, 19 h incubation. On the procedure:
Cellular Assays for Inhibition of Aβ1-40 and Aβ1-42 Production
H4 cells stably transfected with APP751 containing the Swedish mutation (H4 APP751 SWE clone 8.20, developed at BMS) were maintained in log phase through twice weekly passage at a 1:20 split. […] Following incubation for 19 h in 5% CO2 at 37° C., plates were briefly centrifuged (1000 rpm, 5 min). A 10 μl aliquot from each well was transferred to a second assay plate (Costar 3709) for Aβ40 measurements. Antibody cocktails were freshly prepared by dilution into 40 mM Tris-HCl (pH 7.4) with 0.2% BSA and added to assay plates. For Aβ42 measurements, antibodies specific for the Aβ42 neoepitope (565, developed at BMS; conjugated to the Wallac reagent (Perkin Elmer)) and the N-terminal sequence of Aβ peptide (26D6, developed at SIBIA; conjugated to APC (Perkin Elmer)) were mixed and 20 μl of the mixture was added to each well of the incubated cell plate yielding a final concentration of 0.8 ng/well 565 and 75 ng/well 26D6. For the Aβ40 measurements, antibodies specific for the Aβ40 neoepitope (TSD, developed at BMS; conjugated to the Wallac reagent (Perkin Elmer)) and 26D6 as described above were mixed and 20 μl of the mixture was added to the 10 μl aliquots which had been removed previously from the cell plate yielding a final concentration of 1.6 ng/well TSD and 17.5 ng/well 26D6. Assay plates containing antibodies were sealed with aluminum foil and incubated overnight at 4° C. Signal was determined using a Viewlux counter (Perkin Elmer) and IC50 values determined using curve fitting in CurveMaster (Excel Fit based).

The mark [1] stands for this setting: class symbols, read-out: Activity Rating (Aβ42 cellular IC50).
Setting [2] is: 19 h, class symbols, read-out: Activity Rating (Aβ42 cellular IC50).
Where [3] appears, read: 19 h, read-out: Activity Rating (Aβ42 cellular IC50), numeric value.

The term IC50 denotes the midpoint of a concentration-inhibition curve. In the case of `CNc1nc(Nc2ccc(-n3cnc(C)c3)c(OC)c2)nc2c1COCC2c1ccc(Cl)cc1` (single isomer, unassigned) [Example 70A, 8-(4-chlorophenyl)-N^2-(3-methoxy-4-(4-methyl-1H-imidazol-1-yl)phenyl)-N^4-methyl-7,8-dihydro-5H-pyrano[4,3-d]pyrimidine-2,4-diamine], under setting [1], the IC50 lay in the range of 1.5 to 9.9 nM.

With `CCNc1nc(Nc2ccc(-n3cnc(Cl)c3)c(OC)c2)nc2c1COCC2c1ccc(F)c(F)c1` (stereo not drawn) [Example 113A, N2-(4-(4-chloro-1H-imidazol-1-yl)-3-methoxyphenyl)-8-(3,4-difluorophenyl)-N4-ethyl-7,8-dihydro-5H-pyrano[4,3-d]pyrimidine-2,4-diamine], the IC50 under setting [1] was 1.5 to 9.9 nM.

Turning to `COc1cc(Nc2nc3c(c(N(C)C)n2)CCC3c2ccc(OC(F)(F)F)cc2)ccc1-n1cnc(Cl)c1` (racemic) [Example 100, N^2-(4-(4-Chloro-1H-imidazol-1-yl)-3-methoxyphenyl)-N^4,N^4-dimethyl-7-(4-(trifluoromethoxy)phenyl)-6,7-dihydro-5H-cyclopenta[d]pyrimidine-2,4-diamine], the IC50 under setting [2] was in the range of 1.5 to 9.9 nM.

`COc1cc(Nc2nc3c(c(N4CCC(F)(F)CC4)n2)CCC3c2ccc(F)cc2)ccc1-n1cnc(Cl)c1` (stereo not drawn) [Example 39B, N-(4-(4-chloro-1H-imidazol-1-yl)-3-methoxyphenyl)-4-(4,4-difluoropiperidin-1-yl)-7-(4-fluorophenyl)-6,7-dihydro-5H-cyclopenta[d]pyrimidin-2-amine]: the IC50 under setting [2] was 100 to 1000 nM.

For `CCNc1nc(Nc2ccc(-n3cnc(Cl)c3)c(OC)c2)nc2c1COCC2c1cc(F)cc(F)c1` (stereo not drawn) [Example 112B, N2-(4-(4-chloro-1H-imidazol-1-yl)-3-methoxyphenyl)-8-(3,5-difluorophenyl)-N4-ethyl-7,8-dihydro-5H-pyrano[4,3-d]pyrimidine-2,4-diamine], the IC50 under setting [1] lay within 10 to 100 nM.

Take `Cc1ncnn1-c1ccc(Nc2nc3c(c(N4CC(F)(F)C4)n2)CCC3c2ccc(F)cc2)cc1F` (racemic) [Example 16, 4-(3,3-difluoroazetidin-1-yl)-N-(3-fluoro-4-(5-methyl-1H-1,2,4-triazol-1-yl)phenyl)-7-(4-fluorophenyl)-6,7-dihydro-5H-cyclopenta[d]pyrimidin-2-amine]: the IC50 under setting [2] is 10 to 100 nM.

On to `CNc1nc(Nc2ccc(-n3ncnc3C)c(OC)c2)nc2c1CN(C)CC2c1ccc(F)cc1` (stereo not drawn) [Example 199A, 8-(4-fluorophenyl)-N2-(3-methoxy-4-(5-methyl-1H-1,2,4-triazol-1-yl)phenyl)-N4,6-dimethyl-5,6,7,8-tetrahydropyrido[4,3-d]pyrimidine-2,4-diamine], for which the IC50 under setting [1] is 100 to 1000 nM.

For `CNc1nc(Nc2ccc(-n3cnc(Cl)c3)c(OC)c2)nc2c1COCC2c1ccc(F)cc1` (stereo not drawn) [Example 60B, N2-(4-(4-chloro-1H-imidazol-1-yl)-3-methoxyphenyl)-8-(4-fluorophenyl)-N4-methyl-7,8-dihydro-5H-pyrano[4,3-d]pyrimidine-2,4-diamine], the IC50 under setting [2] is 10 to 100 nM.

With `CNc1nc(Nc2ccc3[nH]ccc3c2)nc2c1CCC2c1ccccc1` (stereo not drawn) [Example 251, N2-(1H-indol-5-yl)-N4-methyl-7-phenyl-6,7-dihydro-5H-cyclopenta[d]pyrimidine-2,4-diamine], the IC50 under setting [2] is greater than 1000 nM.

On to `CCNc1nc(Nc2ccc(-n3ncnc3C)c(F)c2)nc2c1COC2c1ccc(F)cc1` (single isomer, unassigned) [Example 78A, N^4-ethyl-N^2-(3-fluoro-4-(5-methyl-1H-1,2,4-triazol-1-yl)phenyl)-7-(4-fluorophenyl)-5,7-dihydrofuro[3,4-d]pyrimidine-2,4-diamine], for which the IC50 under setting [3] was found to be 19 nM.

Regarding `CNc1nc(Nc2ccc(-n3cnc(Cl)c3)c(OC)c2)nc2c1CCC2c1ccccc1` (single isomer, unassigned) [Example 7A, N^2-(4-(4-chloro-1H-imidazol-1-yl)-3-methoxyphenyl)-N^4-methyl-7-phenyl-6,7-dihydro-5H-cyclopenta[d]pyrimidine-2,4-diamine], the IC50 under setting [1] fell in the range of 1.5 to 9.9 nM.

Consider `CCNc1nc(Nc2ccc(-n3cnc(Cl)c3)c(OC)c2)nc2c1CN(S(C)(=O)=O)CC2c1ccccc1` (stereo not drawn) [Example 134A, N2-(4-(4-chloro-1H-imidazol-1-yl)-3-methoxyphenyl)-N4-ethyl-6-(methylsulfonyl)-8-phenyl-5,6,7,8-tetrahydropyrido[4,3-d]pyrimidine-2,4-diamine], for which the IC50 under setting [3] was found to be 3.6 nM.

`COc1cc(Nc2nc3c(c(N4CC(OC)C4)n2)CCC3c2ccccc2)ccc1-n1cnc(Cl)c1` (single isomer, unassigned) [Example 183A, N-(4-(4-chloro-1H-imidazol-1-yl)-3-methoxyphenyl)-4-(3-methoxyazetidin-1-yl)-7-phenyl-6,7-dihydro-5H-cyclopenta[d]pyrimidin-2-amine]: under setting [1], the IC50 is 1.5 to 9.9 nM.

As to `COCC(Nc1nc(Nc2ccc(-n3cnc(Cl)c3)c(OC)c2)nc2c1CCC2c1ccc(F)cc1)C1CC1` (single isomer, unassigned) [Example 45A, N2-(4-(4-chloro-1H-imidazol-1-yl)-3-methoxyphenyl)-N4-(1-cyclopropyl-2-methoxyethyl)-7-(4-fluorophenyl)-6,7-dihydro-5H-cyclopenta[d]pyrimidine-2,4-diamine], the IC50 under setting [1] lay within 10 to 100 nM.

For the molecule `CNc1nc(Nc2ccc(-n3cnc(Cl)c3)c(OC)c2)nc2c1CCC2c1ccc(F)cc1F` (single isomer, unassigned) [Example 109B, N^2-(4-(4-Chloro-1H-imidazol-1-yl)-3-methoxyphenyl)-7-(2,4-difluorophenyl)-N^4-methyl-6,7-dihydro-5H-cyclopenta[d]pyrimidine-2,4-diamine], under setting [1], the IC50 was in the range of 1.5 to 9.9 nM.

Consider `CNc1nc(Nc2ccc(-n3ncnc3C)c(F)c2)nc2c1CN(C)CC2c1ccccc1` (stereo not drawn) [Example 150, N2-(3-fluoro-4-(5-methyl-1H-1,2,4-triazol-1-yl)phenyl)-N4,6-dimethyl-8-phenyl-5,6,7,8-tetrahydropyrido[4,3-d]pyrimidine-2,4-diamine], for which the IC50 under setting [2] fell in the range of 10 to 100 nM.

Take `COc1cc(Nc2nc(N[C@@H](C)C3CC3)c3c(n2)C(c2ccc(F)cc2)CC3)ccc1-n1cnc(Cl)c1` (single isomer, unassigned) [Example 50B]: under setting [1], the IC50 was in the range of 10 to 100 nM.

Regarding `CNc1nc(Nc2ccc(-n3ncnc3C)c(F)c2)nc2c1CN(S(=O)(=O)C1CC1)CC2c1ccccc1` (stereo not drawn) [Example 142, 6-(cyclopropylsulfonyl)-N2-(3-fluoro-4-(5-methyl-1H-1,2,4-triazol-1-yl)phenyl)-N4-methyl-8-phenyl-5,6,7,8-tetrahydropyrido[4,3-d]pyrimidine-2,4-diamine], the IC50 under setting [2] lay in the range of 10 to 100 nM.

With `COc1cc(Nc2nc3c(c(N(C)C)n2)COCC3c2ccc(Cl)cc2)ccc1-n1cnc(Cl)c1` (single isomer, unassigned) [Example 65A, N^2-(4-(4-chloro-1H-imidazol-1-yl)-3-methoxyphenyl)-8-(4-chlorophenyl)-N^4,N^4-dimethyl-7,8-dihydro-5H-pyrano[4,3-d]pyrimidine-2,4-diamine], the IC50 (read-out: Activity Rating (Aβ42 cellular IC50), numeric value) is 5.3 nM.

`CNc1nc(Nc2ccc(-c3ccnc(Cl)c3)c(OC)c2)nc2c1CCC2c1ccccc1` (stereo not drawn) [Example 278, N2-(4-(2-chloropyridin-4-yl)-3-methoxyphenyl)-N4-methyl-7-phenyl-6,7-dihydro-5H-cyclopenta[d]pyrimidine-2,4-diamine]: the IC50 under setting [2] is 10 to 100 nM.

For the molecule `CCC(COC)Nc1nc(Nc2ccc(-n3cnc(Cl)c3)c(OC)c2)nc2c1CCC2c1ccc(F)cc1` [Example 48, N2-(4-(4-chloro-1H-imidazol-1-yl)-3-methoxyphenyl)-7-(4-fluorophenyl)-N4-((R)-1-methoxybutan-2-yl)-6,7-dihydro-5H-cyclopenta[d]pyrimidine-2,4-diamine, 2 TFA], the IC50 under setting [3] turned out to be 18 nM.

As for `COc1cc(Nc2nc3c(c(N4C[C@@H](C)O[C@@H](C)C4)n2)CCC3c2ccc(F)cc2)ccc1-n1cnc(Cl)c1` (single isomer, unassigned) [Example 21B], the IC50 under setting [1] was in the range of 100 to 1000 nM.

As to `COc1cc(Nc2nc3c(c(N4CCCC4C)n2)CCC3c2ccc(F)cc2)ccc1-n1cnc(Cl)c1` (single isomer, unassigned) [Example 20A, N-(4-(4-chloro-1H-imidazol-1-yl)-3-methoxyphenyl)-7-(4-fluorophenyl)-4-(2-methylpyrrolidin-1-yl)-6,7-dihydro-5H-cyclopenta[d]pyrimidin-2-amine], the IC50 under setting [1] was 1.5 to 9.9 nM.

For `CCNc1nc(Nc2ccc(-n3ncnc3C)c(F)c2)nc2c1CN(S(C)(=O)=O)CC2c1ccccc1` (stereo not drawn) [Example 140A, N4-ethyl-N2-(3-fluoro-4-(5-methyl-1H-1,2,4-triazol-1-yl)phenyl)-6-(methylsulfonyl)-8-phenyl-5,6,7,8-tetrahydropyrido[4,3-d]pyrimidine-2,4-diamine], the IC50 under setting [1] fell in the range of 1.5 to 9.9 nM.
